# Experimental data: patent US10392599B2, “Method for non-freeze low-temperature preservation of mammalian embryo or fertilized egg” (NATIONAL FEDERATION OF AGRICULTURAL COOPERATIVE ASSOCIATIONS, priority 2012, dated 2019)
# How the values were obtained:
# [1] = pH of the preservative solution upon completion of preservation; assay type: physicochemical; conditions: for pH of the medium upon completion of the refrigerated storage for 7 days: Good's buffer 25 mM, FBS 50% (v/v), medium 199; for pH upon completion of preservation: medium 199, 7 days
# Procedure: Preservation of bovine embryos was carried out as follows (FIG. 1). First, a preservative solution alone was sucked into a straw having a capacity of 0.25 ml, and, after introduction of an air layer, a bovine embryo contained in the preservative solution was sucked. Thereafter, an air layer was introduced, and the preservative solution alone was sucked again. The straw was then sealed. Subsequently, the straw containing the sucked bovine embryo was immersed in water contained in a plastic container (plastic tube) which had been preliminarily cooled to 4 to 5° C. The plastic container was then stored in a refrigerator for 7 days at 4 to 5° C. […]
# [2] = tested on: bovine embryos; experiment: in vitro culture test of low-quality bovine embryos after 7 days of non-freezing preservation (survival, hatching); assay type: cell-based, Japanese Black Cattle and Holstein Cattle; conditions: for Hatched embryos (%) / Survival rate (%) / Hatched embryos: number / Survival rate: number of surviving embryos: medium 199, low temperature 7 days; for Hatched embryos: number / Survival rate: number of surviving embryos: out of N; for Number of hatched embryos (%) / Number of live embryos (%) / Number of hatched embryos / Number of live embryos: medium 199, 7 days non-frozen
# Procedure: (§1) Embryos collected from donor bovine animals of Japanese Black Cattle and Holstein Cattle after superovulation were evaluated for their qualities according to the regulation by International Embryo Transfer Society (IETS manual. Manual of the international embryo transfer society. In: Stringfellow D A, Seidel S M, editors. Savoy, Ill., USA: IETS 1998). Low-quality embryos were subjected to an in vitro culture test after 7 days of non-freezing preservation, and high-quality embryos were subjected to investigation of the conception rate after implantation to recipient cattle.
# (§2) Preservation of bovine embryos was carried out as follows (FIG. 1). First, a preservative solution alone was sucked into a straw having a capacity of 0.25 ml, and, after introduction of an air layer, a bovine embryo contained in the preservative solution was sucked. Thereafter, an air layer was introduced, and the preservative solution alone was sucked again. The straw was then sealed. Subsequently, the straw containing the sucked bovine embryo was immersed in water contained in a plastic container (plastic tube) which had been preliminarily cooled to 4 to 5° C. The plastic container was then stored in a refrigerator for 7 days at 4 to 5° C.
# (§3) After the non-freezing preservation, the bovine embryo was washed 3 times by immersion in PBS(+) containing 5% (v/v) fetal bovine serum (FBS). The washed bovine embryo was cultured under 5% CO2 at 38° C. in CR1aa medium containing 5% (v/v) FBS for 48 hours. Morphological observation was carried out under a stereoscopic microscope, and the embryo was judged to be alive if the progress of cleavage by the culture could be found and the cytoplasmic membrane was not disrupted. Live cells were checked for whether hatching from the zona pellucida could be observed or not. A bovine embryo washed with PBS(+) containing 5% (v/v) FBS was nonsurgically implanted into the deep part of the corpus-luteum-side uterine horn of each recipient cattle on Day 6 to 8 of an estrous cycle (the date of estrus was defined as Day 0). On Days 30 and 60 of the estrous cycle, pregnancy diagnosis was carried out. For a significance test to verify the effect of the embryo preservation solution according to the present invention, a χ^2 test was used.
# (§4) To medium 199 (Invitrogen) supplemented with antibiotics (penicillin G potassium and streptomycin sulfate), FBS was added to 20 to 50% (v/v), and HEPES was also added to a concentration of 0 to 100 mM. In the conception test, a group in which a special peptide having a protection effect against low temperature (mature Nfel1, SEQ ID NO:2) was added was also provided. In addition, in order to investigate the effects of other Good's buffers other than HEPES, preservation solutions were prepared by adding FBS and a Good's buffer (PIPES or MOPS) to medium 199 such that the concentration of FBS was 50% (v/v) and the concentration of the Good's buffer was 25 mM. These preservation solutions were sterilized by filtration through a filter having a pore size of 0.2 μm, and stored in a refrigerator until use.
# Using medium 199 to which a Good's buffer was added at 25 mM (FBS concentration, 50% (v/v) FBS), bovine embryos were preserved at low temperature for 7 days, and the survival rate and the hatching rate were investigated by the method described above. […] In Table 3, “pH” indicates the pH of the medium upon completion of the refrigerated storage for 7 days.
# [3] = tested on: bovine embryos; experiment: conception test: implantation of high-quality bovine embryos preserved 7 days in the non-frozen state into recipient cattle; assay type: in vivo; conditions: 7 days non-frozen, medium 199, 50% (v/v) FBS, 25 mM HEPES
# Procedure: as §1, §2, §3, §4
# Subsequently, the conception ability of high-quality bovine embryos that had been preserved in the non-frozen state for 7 days was investigated. Since the concentration of HEPES generally recommended for use in cell culture is 10 to 25 mM (Luo S et al., Effect of HEPES buffer on the uptake and transport of P-glycoprotein substrates and large neutral amino acids. Mol Pharm 2010; 7:412-420), the concentration of HEPES in the non-freezing preservative solution used in the present test for investigation of the conception ability was set to 25 mM. The special recombinant peptide having a protection effect against low temperature (mature Nfel1 peptide) was added to medium 199 containing 50% (v/v) FBS supplemented with 25 mM HEPES, to see whether the peptide improves the conception ability or not.
# [4] = Good's buffer 25 mM, FBS 50% (v/v)
# [5] = 12.5 mM HEPES, 20% FBS, 35 tested embryos
# [6] = 12.5 mM HEPES, 50% FBS, 35 tested embryos
# [7] = 25 mM HEPES, 20% FBS, 36 tested embryos
# [8] = 25 mM HEPES, 50% FBS, 36 tested embryos
# [9] = 50 mM HEPES, 20% FBS, 30 tested embryos
# [10] = 50 mM HEPES, 50% FBS, 30 tested embryos
# [11] = 100 mM HEPES, 50% FBS, 20 tested embryos
# [12] = 25 mM tris (pH adjusted to 7.2 with hydrochloric acid), medium 199, 50% (v/v) FBS, 7 days
compound,measurement,setting,value
"O=S(=O)(O)CCCN1CCN(CCO)CC1 [EPPS, 3-[4-(2-Hydroxyethyl)-1-piperazinyl]propanesulfonic acid]",pH of the medium upon completion of the refrigerated storage for 7 days,[1],7.3
same,Hatched embryos (%),[2]; [4],10.0%
same,Survival rate (%),[2]; [4],35.0%
same,Hatched embryos: number,[2]; [4],2
same,Survival rate: number of surviving embryos,[2]; [4],7
"O=S(=O)(O)CCN1CCN(CCO)CC1 [HEPES, 4-(2-hydroxyethyl)-1-piperazineethanesulfonic acid]",pH upon completion of preservation,"[1]; 12.5 mM HEPES, 20% FBS",7.4
same,pH upon completion of preservation,"[1]; 12.5 mM HEPES, 50% FBS",7.4
same,pH upon completion of preservation,"[1]; 25 mM HEPES, 20% FBS",7.3
same,pH upon completion of preservation,"[1]; 25 mM HEPES, 50% FBS",7.0
same,pH upon completion of preservation,"[1]; 50 mM HEPES, 20% FBS",6.9
same,pH upon completion of preservation,"[1]; 50 mM HEPES, 50% FBS",6.8
same,pH upon completion of preservation,"[1]; 100 mM HEPES, 50% FBS",6.9
same,pH of the medium upon completion of the refrigerated storage for 7 days,[1],7.0
same,pH of the non-freezing preservative solution containing HEPES upon completion of the preservation,[1]; HEPES-containing solutions of Table 1,6.9 to 7.4
same,conception rate,[3]; high-quality bovine embryos,75.0%
same,Conceptus number on Day 30 (%),[3],75.0%
same,Conceptus number on Day 60 (%),[3],75.0%
same,birth of calves,[3],birth of normal calves could be observed
same,death of early embryos between Day 30 and Day 60 of pregnancy,[3],not found
same,Conceptus number on Day 30,[3]; 16 implanted embryos,12
same,Conceptus number on Day 60,[3]; 16 implanted embryos,12
same,Number of hatched embryos (%),"[2]; 12.5 mM HEPES, 20% FBS",8.6%
same,Number of live embryos (%),"[2]; 12.5 mM HEPES, 20% FBS",25.7%
same,Number of hatched embryos,[2]; [5],3
same,Number of live embryos,[2]; [5],9
same,Number of hatched embryos (%),"[2]; 12.5 mM HEPES, 50% FBS",25.7%
same,Number of live embryos (%),"[2]; 12.5 mM HEPES, 50% FBS",54.3%
same,Number of hatched embryos,[2]; [6],9
same,Number of live embryos,[2]; [6],19
same,Number of hatched embryos (%),"[2]; 25 mM HEPES, 20% FBS",25.0%
same,Number of live embryos (%),"[2]; 25 mM HEPES, 20% FBS",63.9%
same,Number of hatched embryos,[2]; [7],9
same,Number of live embryos,[2]; [7],23
same,Number of hatched embryos (%),"[2]; 25 mM HEPES, 50% FBS",36.1%
same,Number of live embryos (%),"[2]; 25 mM HEPES, 50% FBS",69.4%
same,Number of hatched embryos,[2]; [8],13
same,Number of live embryos,[2]; [8],25
same,Number of hatched embryos (%),"[2]; 50 mM HEPES, 20% FBS",26.7%
same,Number of live embryos (%),"[2]; 50 mM HEPES, 20% FBS",63.3%
same,Number of hatched embryos,[2]; [9],8
same,Number of live embryos,[2]; [9],19
same,Number of hatched embryos (%),"[2]; 50 mM HEPES, 50% FBS",33.3%
same,Number of live embryos (%),"[2]; 50 mM HEPES, 50% FBS",73.3%
same,Number of hatched embryos,[2]; [10],10
same,Number of live embryos,[2]; [10],22
same,Number of hatched embryos (%),"[2]; 100 mM HEPES, 50% FBS",20.0%
same,Number of live embryos (%),"[2]; 100 mM HEPES, 50% FBS",65.0%
same,Number of hatched embryos,[2]; [11],4
same,Number of live embryos,[2]; [11],13
same,"effect to protect embryos during non-freezing low-temperature preservation, compared among Good's buffers","[2]; Good's buffer 25 mM, FBS 50% (v/v), medium 199, 7 days",highest effect
same,Hatched embryos (%),[2]; [4],36.1%
same,Survival rate (%),[2]; [4],69.4%
same,Hatched embryos: number,[2]; [4],13
same,Survival rate: number of surviving embryos,[2]; [4],25
same,survival rate after preservation for 7 days compared to the HEPES-free group,"[2]; HEPES 12.5 to 100 mM, low-quality bovine embryos",higher survival rate
same,rate of hatching from the zona pellucida,"[2]; HEPES 25 to 50 mM, FBS 50% (v/v)",especially high
"O=S(=O)(O)CCCN1CCOCC1 [MOPS, 3-Morpholinopropanesulfonic acid]",pH of the medium upon completion of the refrigerated storage for 7 days,[1],7.0
same,Hatched embryos (%),[2]; [4],25.0%
same,Survival rate (%),[2]; [4],45.0%
same,Hatched embryos: number,[2]; [4],5
same,Survival rate: number of surviving embryos,[2]; [4],9
"O=S(=O)(O)CCN1CCN(CCS(=O)(=O)O)CC1 [PIPES, Piperazine-1,4-bis(2-ethanesulfonic acid)]",pH of the medium upon completion of the refrigerated storage for 7 days,[1],7.0
same,Hatched embryos (%),[2]; [4],25.0%
same,Survival rate (%),[2]; [4],40.0%
same,Hatched embryos: number,[2]; [4],5
same,Survival rate: number of surviving embryos,[2]; [4],8
"O=S(=O)(O)CCNC(CO)(CO)CO [TES, N-Tris(hydroxymethyl)methyl-2-aminoethanesulfonic acid]",pH of the medium upon completion of the refrigerated storage for 7 days,[1],7.2
same,Hatched embryos (%),[2]; [4],15.0%
same,Survival rate (%),[2]; [4],30.0%
same,Hatched embryos: number,[2]; [4],3
same,Survival rate: number of surviving embryos,[2]; [4],6
tris(hydroxymethyl)aminomethane [reference compound],pH after the low-temperature preservation,"[1]; 25 mM tris, medium 199, 50% (v/v) FBS, 7 days",7.2
same,hatching rate after the preservation,[2]; [12],5.0%
same,survival rate after the preservation,[2]; [12],10.0%
